Data on 2 compounds can be found in patent US20220184037A1, “PHARMACEUTICAL AGENTS TARGETING CANCER STEM CELLS” (THE JOHNS HOPKINS UNIVERSITY, priority 2020, published 2022).

Series [1] can be described thus: Body weight of treated mice. The series is classed as in vivo. The settings on record: mice treated with inhibitors compared with control. The procedure:
(§1) For therapeutic efficacy, mice were randomly assigned into experimental groups (five mice per group) when tumors reached a volume of […]. For celecoxib and/or VP treatment, celecoxib (5 mg/kg) was administered via intraperitoneal (i.p.) injection once a day (17), and VP (50 mg/kg) was administered via i.p. every other day (18). EP4 antagonist ONO-AE3-208 (10 mg/kg) was administered via i.p. once a day (19). Control was applied with same volume (10 μL per injection) of 10% dimethyl sulphoxide in 1% TWEEN 80 (Sigma-Aldrich). For GEM and CDDP (GC) treatment (i.p.), CDDP (6 mg/kg) was only applied after the first GEM (60 mg/kg) treatment on day 2, followed by three consecutive treatments of GEM on day 5, 8 and 11 (17). The next cycle was started on day 18, and the treatment was continued until tumor reached 2 cm in diameter. For erlotinib treatment, the mice were treated once a day, 6 days per week, by oral gavage with erlotinib (100 mg/kg) or control (PBS containing 0.5% methyl cellulose (Sigma-Aldrich) and 0.1% TWEEN 80) (20). Tumor size was measured at least every three days. Therapeutic efficacy was assessed using percentage change after treatment related to tumor size before treatment. […]

For series [2], the system named is promoters of miR-126, miR-296 and miR-200c. Nature of the series: Bisulfite sequencing of miRNA promoter methylation. The series is classed as cell-based, human. The settings on record: spheroid cells.
For series [3], the system named is let-7 host gene MIRLET7BHG promoter. In words: Bisulfite sequencing of let-7 host gene promoter methylation. The series is classed as cell-based, human. The conditions noted are these: 10 μM celecoxib, 2 μM PGE2, or 5 μM 5-Aza-dC for 5 days. The procedure: Cell pellets were digested with 1% sodium dodecyl sulfate and 50 μg/mL proteinase K (Roche, Nutley, USA) at 48° C. overnight. Isolation of genomic DNA from cell lines was performed with the phenol-chloroform extraction protocol followed by ethanol precipitation. Bisulfite treatment was conducted using an EpiTect Bisulfite K ft (QIAGEN, Valencia, USA), and was subsequently amplified via PCR using primers as shown in the following table. PCR products were purified using the QIAquick Gel Extraction kit (Qiagen), and sequenced by Genewiz DNA sequencing service (Genewiz, South Plainfield, USA). The data were analyzed using the Sequence Scanner v1.0 software (Life technologies). A methylation frequency of ≥50% of total CpG sites within the amplified region was considered “methylation-positive”. For demethylation, cells ([…]) dissolved in 50% acetic acid or were mock-treated with phosphate buffered saline (PBS) including the same amount of acetic acid every 24 hours for 5 days. When combined with the histone deacetylase inhibitor TSA (Sigma), 300 nmol/L TSA was added to the medium for the final 24 hours.

Series [4] has as its system xenograft tumors that acquired resistance to erlotinib (5637 cells). Nature of the series: In vivo therapeutic efficacy in tumors with acquired resistance to erlotinib. Further details: species or system mice. The conditions noted are these: western blotting (FIG. 7G). The procedure:
as §1

For series [5], the system named is arsenic exposed (As)-HUC1 cells. Nature of the series: MTT assay, sensitivity to erlotinib (IC50). The series is classed as cell-based, human. The conditions noted are these: 72 hours (FIG. 1H). The procedure:
(§2) Embryonic kidney cell line 293, SV-40 immortalized normal human urothelial cell line (HUC1), and bladder cancer cell lines 5637, FIT-1376, J82, SCaBER, RT-4, T24, and UM-UC3 were obtained from American. Type Culture Collection (ATCC; Manassas, Va., USA). Mediums were purchased from Mediatech (Manassas, USA) and supplemented with 10% FBS (Hyclone, Logan, USA) under a 5% CO2 atmosphere at 95% relative humidity. HUC-1, T24, and 5637 cells were grown in F-12K, McCoy's 5A, and RPMI 1640 medium, respectively, and all other cells were grown Dulbecco's modified Eagle medium (DMEM). BFTC 905 and BFTC 909 cell lines were established from arsenic-exposed urothelial carcinoma subjects (9) and obtained from the German Collection of Microorganisms and Cell Cultures (Braunschweig, Germany). Re-authentification of cells was performed using PowerPlex 16 HS for short tandem repeats analysis at Genetic resource core facility, the Johns Hopkins University School of Medicine, Institute of Genetic Medicine, and all cell lines have been confirmed as authentic. To prepare in vitro arsenic model, we chronically exposed HUC1 cells to 1 μM arsenic trioxide, as described previously (10) and arsenic-exposed (As) cells and passage-matched arsenic un-exposed control (UE) cells were stock for each months until 12 months. […]
(§3) The cell proliferative and viability activity were measured using the 3-(4,5-dimethyl thiazol-2-yl)-2,5-diphenyltetrazolium bromide (MTT) Proliferation Assay Kit (ATCC; Manassas, Va., USA) according to the manufacturer's protocol. […] Spectrophotometric readings (570 nm-650 nm) were obtained on a Spectra Max 250 96-well plate reader (Molecular devices, Sunnyvale, USA). […] Cell viability was expressed as the ratio of absorbance values of the treated cells related to the untreated control cells considered as 1.0. The half maximal (50%) inhibitory concentration (IC50) value of drug was calculated by treatment with the various concentration for 72 hours using MTT assay. […]
(In general: Formazan colour is commonly taken as a measure of viable cells.)

Series [6] has as its system BFTC 905 cells. Nature of the series: MTT assay, sensitivity to erlotinib (IC50). The series is classed as cell-based, human. The settings on record: BFTC 905 cells harboring an NRAS mutation, 72 hours. The procedure:
as §2, §3

Series [7] has as its system basal-type bladder cancer cell lines. Nature of the series: MTT assay, sensitivity to erlotinib (IC50). The series is classed as cell-based, human. The conditions noted are these: 72 hours. The procedure:
as §2, §3

SMILES strings stand for the structures.

Turning to `Cc1ccc(-c2cc(C(F)(F)F)nn2-c2ccc(S(N)(=O)=O)cc2)cc1` [celecoxib, Celecoxib], the body weight loss result in series [1] was “did not observe body weight loss”. The “promoter methylation of miR-126, miR-296, miR-200c” value in series [2] was “demethylated”. Also, in series [3], the “promoter methylation of the let-7 host gene” value is listed as “demethylated”.

Turning to `C#Cc1cccc(Nc2ncnc3cc(OCCOC)c(OCCOC)cc23)c1` [erlotinib, Erlotinib], the “EGFR-MAPK signaling in xenograft tumors” value in series [4] is “remained suppressed”. Besides, the “sensitivity to the EGFR inhibitor erlotinib” value in series [5] is on record as “sensitive”; in series [6] it was “resistance”; in series [7] it was “sensitive”.
